Data published in ChEMBL document CHEMBL6115017, “Discovery of DFV890, a Potent Sulfonimidamide-Containing NLRP3 Inflammasome Inhibitor” (J Med Chem, 2025).
≈ marks a conversion by molar mass, not a printed value. Calls of active or inactive are those of the source. No cut-off for these calls is given here.

Assays:
[1] = AUC (infinity) in Sprague-Dawley rat at 5 mg/kg, po by LC-MS analysis; type: ADME, organism-based; conditions: in vivo
[2] = Thermodynamic solubility in PBS at pH 7.4; type: physicochemical; conditions: read-out: Therm_solubility
Mus musculus [3] = test: In vivo inhibition of NLRP3 dependent cytokine production in po dosed LPS-challenged C57BL/6 mouse model assessed as inhibition of LPS-induced IL-6 production in blood pretreated for 1 hr followed by induced with LPS measured after 5 hrs by cytokine bead assay; type: functional, organism-based; conditions: time 6.0 hrs
cells = conditions: Macaca fascicularis, PBMC
Description: Antagonist activity at NLRP3 inflammasome activation in Cynomolgus monkey PBMC assessed as inhibition of LPS-stimulated IL-1beta release pretreated for 1 hr followed by induced with LPS measured after 18 hrs by HTRF analysis

[4] = AUC (infinity) in C57 BL6 mouse at 10 mg/kg, po by LC-MS analysis; type: ADME, organism-based; conditions: in vivo
[5] = Fraction unbound in human plasma; type: ADME, cell-free
[6] = AUC (infinity) in Beagle dog at 2 mg/kg, po by LC-MS analysis; type: ADME, organism-based, Canis lupus familiaris; conditions: in vivo
PXR = molecular target: T1, PXR (Homo sapiens, UniProt O75469); test: Activation of PXR (unknown origin) assessed as activation at 30 uM relative to control; type: toxicity; conditions: read-out: Activity
T1 sequence (O75469 whole entry): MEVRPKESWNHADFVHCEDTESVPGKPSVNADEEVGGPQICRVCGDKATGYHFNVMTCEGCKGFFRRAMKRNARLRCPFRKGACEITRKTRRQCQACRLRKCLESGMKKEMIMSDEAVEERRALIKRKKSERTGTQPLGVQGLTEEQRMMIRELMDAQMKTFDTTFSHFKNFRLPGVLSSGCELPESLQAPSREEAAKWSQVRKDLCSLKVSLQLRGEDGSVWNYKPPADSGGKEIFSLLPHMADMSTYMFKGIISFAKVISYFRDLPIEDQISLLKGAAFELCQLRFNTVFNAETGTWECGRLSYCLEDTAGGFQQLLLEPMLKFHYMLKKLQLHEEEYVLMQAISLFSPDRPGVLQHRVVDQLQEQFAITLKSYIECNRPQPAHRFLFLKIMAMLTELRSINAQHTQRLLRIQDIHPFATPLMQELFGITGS

Cytochrome P450 2C19 = Cytochrome P450 2C19 (Homo sapiens, UniProt P33261); test: Inhibition of CYP2C19 (unknown origin); type: ADME
PBMC = test: Antagonist activity at NLRP3 inflammasome activation in Cynomolgus monkey PBMC assessed as inhibition of LPS-stimulated IL-1beta release by measuring free concentration pretreated for 1 hr followed by induced with LPS measured after 18 hrs by HTRF analysis; type: cell-based; conditions: Macaca fascicularis, filed as antagonist, time 19.0 hrs
[7] = Fraction unbound in Cynomolgus monkey plasma; type: ADME, cell-free, Macaca fascicularis
Cytochrome P450 2C9 [8] = molecular target: T2, Cytochrome P450 2C9 (Homo sapiens, UniProt P11712); test: Inhibition of CYP2C9 (unknown origin) by time dependent inhibition assay; type: ADME
[9] = molecular target: 5-hydroxytryptamine receptor 2A (Homo sapiens) (UniProt P28223); test: Inhibition of 5HT2A (unknown origin); conditions: concentration not given here
[10] = molecular target: Voltage-gated inwardly rectifying potassium channel KCNH2 (Homo sapiens, UniProt Q12809); test: Inhibition of hERG; type: toxicity
[11] = Volume of distribution at steady state in Beagle dog at 2 mg/kg, po and 1 mg/kg, iv by LC-MS analysis; type: ADME, organism-based, Canis lupus familiaris; conditions: in vivo
THP-1 = test: Inhibition of pyroptosis in PMA-primed human THP-1 cells assessed as release of lactate dehydrogenase
[12] = Thermodynamic solubility in Simulated colon solution; type: physicochemical; conditions: read-out: Therm_solubility
[13] = Half life in C57 BL6 mouse at 10 mg/kg, po and 2 mg/kg, iv by LC-MS analysis; type: ADME, organism-based; conditions: in vivo
[14] = Lipophilicity, log D of compound in potassium phosphate buffer/octanol at pH 7.4; type: physicochemical
[15] = Volume of distribution at steady state in C57 BL6 mouse at 10 mg/kg, po and 2 mg/kg, iv by LC-MS analysis; type: ADME, organism-based; conditions: in vivo
[16] = Metabolic stability in dog hepatocytes assessed as intrinsic clearance measured per 10^6 cells; type: ADME, cell-based, Canis lupus familiaris, Hepatocyte; conditions: read-out: CLH
[17] = Cmax in Beagle dog at 2 mg/kg, po by LC-MS analysis; type: ADME, organism-based, Canis lupus familiaris; conditions: in vivo
[18] = AUC (infinity) in Cynomolgus monkey at 5 mg/kg, po by LC-MS analysis; type: ADME, organism-based, Macaca fascicularis; conditions: in vivo
[19] = Solubility of the compound in PBS at pH 7.4; type: physicochemical
Bile salt export pump = Bile salt export pump (Homo sapiens, UniProt O95342); test: Inhibition of BSEP (unknown origin) assessed as reduction in uptake rate of taurocholic acid at 5 uM relative to control; type: toxicity
Mus musculus [20] = test: In vivo inhibition of NLRP3 dependent cytokine production in po dosed LPS-challenged C57BL/6 mouse model assessed as inhibition of LPS-induced IL-18 production in blood pretreated for 1 hr followed by induced with LPS measured after 5 hrs by cytokine bead assay; type: functional, organism-based; conditions: time 6.0 hrs
Cytochrome P450 2D6 = Cytochrome P450 2D6 (Homo sapiens, UniProt P10635); test: Inhibition of CYP2D6 (unknown origin); type: ADME
Cytochrome P450 2C9 [21] = molecular target: T2, Cytochrome P450 2C9; test: Inhibition of CYP2C9 (unknown origin); type: ADME
Cytochrome P450 3A4 = Cytochrome P450 3A4 (Homo sapiens, UniProt P08684); test: Inhibition of CYP3A4 (unknown origin) by time dependent inhibition assay; type: ADME
Macrophage = test: Inhibition of AIM2 inflammasome activation in mouse iMac assessed as inhibition of poly(dA:dT) induced IL-1beta release pretreated for 1 hr followed by induced with poly(dA:dT) measured after 2 hr incubation by HTRF analysis; type: cell-based; conditions: time 3.0 hrs
Mus musculus [22] = test: In vivo anti-inflammatory activity against MSU crystal-induced gouty arthritis Balb/c mouse model assessed as reduction of volume of pouch exudate at 0.1 to 50 mg/kg, po single dose; type: functional, organism-based; conditions: dose 0.1-50 mg/kg
Mus musculus [23] = test: In vivo inhibition of NLRP3 dependent cytokine production in po dosed LPS-challenged C57BL/6 mouse model assessed as inhibition of LPS-induced TNFalpha production in blood pretreated for 1 hr followed by induced with LPS measured after 5 hrs by cytokine bead assay; type: functional, organism-based; conditions: time 6.0 hrs

T2 sequence (P11712 whole entry): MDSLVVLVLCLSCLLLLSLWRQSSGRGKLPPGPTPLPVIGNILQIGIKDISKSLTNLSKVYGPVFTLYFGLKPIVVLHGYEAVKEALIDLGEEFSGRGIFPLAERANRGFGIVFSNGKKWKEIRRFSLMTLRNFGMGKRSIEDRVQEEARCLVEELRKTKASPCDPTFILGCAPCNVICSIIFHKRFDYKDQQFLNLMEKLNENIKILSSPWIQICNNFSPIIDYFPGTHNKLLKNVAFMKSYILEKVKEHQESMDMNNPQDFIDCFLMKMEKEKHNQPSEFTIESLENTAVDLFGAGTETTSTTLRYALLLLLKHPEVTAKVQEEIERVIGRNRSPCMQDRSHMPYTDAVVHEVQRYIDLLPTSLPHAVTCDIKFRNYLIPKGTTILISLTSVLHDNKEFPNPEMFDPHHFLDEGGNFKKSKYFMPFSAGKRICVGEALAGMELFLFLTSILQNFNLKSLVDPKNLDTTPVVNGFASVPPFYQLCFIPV
Chain of 5-hydroxytryptamine receptor 2A (Homo sapiens) (P28223 whole entry): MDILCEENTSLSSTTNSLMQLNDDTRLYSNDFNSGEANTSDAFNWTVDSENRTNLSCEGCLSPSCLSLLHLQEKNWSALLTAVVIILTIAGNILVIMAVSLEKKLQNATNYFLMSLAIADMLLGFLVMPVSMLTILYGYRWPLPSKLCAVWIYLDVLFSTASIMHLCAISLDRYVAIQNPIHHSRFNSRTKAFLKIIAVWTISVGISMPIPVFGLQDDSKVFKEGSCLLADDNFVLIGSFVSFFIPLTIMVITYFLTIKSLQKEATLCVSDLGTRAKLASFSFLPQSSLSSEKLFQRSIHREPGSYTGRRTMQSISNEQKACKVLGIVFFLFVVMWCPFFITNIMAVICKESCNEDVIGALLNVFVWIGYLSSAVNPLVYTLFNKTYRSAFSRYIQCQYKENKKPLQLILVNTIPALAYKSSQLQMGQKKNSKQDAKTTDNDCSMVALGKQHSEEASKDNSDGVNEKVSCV
Chain of Cytochrome P450 2D6 (P10635 whole entry): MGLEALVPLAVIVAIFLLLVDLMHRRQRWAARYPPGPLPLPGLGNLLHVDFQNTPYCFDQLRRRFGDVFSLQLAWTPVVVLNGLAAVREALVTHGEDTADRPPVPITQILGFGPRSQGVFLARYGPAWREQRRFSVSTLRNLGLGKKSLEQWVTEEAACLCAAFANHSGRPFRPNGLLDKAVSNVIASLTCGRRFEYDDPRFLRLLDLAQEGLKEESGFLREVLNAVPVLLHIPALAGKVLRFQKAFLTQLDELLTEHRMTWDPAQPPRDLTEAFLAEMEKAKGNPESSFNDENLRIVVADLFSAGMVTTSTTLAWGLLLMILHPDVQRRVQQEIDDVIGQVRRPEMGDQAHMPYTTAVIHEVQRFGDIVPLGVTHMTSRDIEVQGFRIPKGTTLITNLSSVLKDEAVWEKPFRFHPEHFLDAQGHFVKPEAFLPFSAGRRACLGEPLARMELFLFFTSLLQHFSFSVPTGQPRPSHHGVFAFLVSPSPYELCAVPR
Chain of Voltage-gated inwardly rectifying potassium channel KCNH2 (Q12809 whole entry): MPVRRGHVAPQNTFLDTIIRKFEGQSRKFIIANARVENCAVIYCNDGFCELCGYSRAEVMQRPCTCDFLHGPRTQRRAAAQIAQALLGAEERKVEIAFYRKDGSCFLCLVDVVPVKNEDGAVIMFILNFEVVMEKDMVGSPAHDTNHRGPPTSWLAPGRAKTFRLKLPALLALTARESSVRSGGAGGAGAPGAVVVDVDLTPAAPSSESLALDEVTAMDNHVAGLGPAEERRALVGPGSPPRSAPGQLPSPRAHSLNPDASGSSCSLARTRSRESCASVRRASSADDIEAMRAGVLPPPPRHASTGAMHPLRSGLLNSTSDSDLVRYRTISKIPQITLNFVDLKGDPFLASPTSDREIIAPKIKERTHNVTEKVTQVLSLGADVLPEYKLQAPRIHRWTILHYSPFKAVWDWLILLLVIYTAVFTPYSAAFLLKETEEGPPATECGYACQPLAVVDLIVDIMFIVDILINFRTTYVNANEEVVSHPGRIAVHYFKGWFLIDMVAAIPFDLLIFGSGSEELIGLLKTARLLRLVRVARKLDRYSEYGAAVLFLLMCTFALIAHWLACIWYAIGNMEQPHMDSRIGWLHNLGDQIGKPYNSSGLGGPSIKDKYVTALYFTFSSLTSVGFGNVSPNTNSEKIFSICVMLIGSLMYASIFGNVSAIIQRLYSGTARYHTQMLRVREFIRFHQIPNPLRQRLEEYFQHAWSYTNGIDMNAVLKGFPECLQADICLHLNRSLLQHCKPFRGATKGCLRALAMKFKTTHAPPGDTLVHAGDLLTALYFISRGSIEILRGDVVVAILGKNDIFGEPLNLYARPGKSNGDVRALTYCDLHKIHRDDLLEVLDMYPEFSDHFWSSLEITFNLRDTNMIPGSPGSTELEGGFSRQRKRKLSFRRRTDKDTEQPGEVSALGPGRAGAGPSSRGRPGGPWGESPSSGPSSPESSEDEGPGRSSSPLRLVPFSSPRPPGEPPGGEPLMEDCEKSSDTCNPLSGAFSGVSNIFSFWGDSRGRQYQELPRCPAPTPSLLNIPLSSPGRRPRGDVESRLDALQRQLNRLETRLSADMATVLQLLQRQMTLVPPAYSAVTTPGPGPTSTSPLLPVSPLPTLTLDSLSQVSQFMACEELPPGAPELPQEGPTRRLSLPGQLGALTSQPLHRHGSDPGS
Chain of Cytochrome P450 2C19 (P33261 whole entry): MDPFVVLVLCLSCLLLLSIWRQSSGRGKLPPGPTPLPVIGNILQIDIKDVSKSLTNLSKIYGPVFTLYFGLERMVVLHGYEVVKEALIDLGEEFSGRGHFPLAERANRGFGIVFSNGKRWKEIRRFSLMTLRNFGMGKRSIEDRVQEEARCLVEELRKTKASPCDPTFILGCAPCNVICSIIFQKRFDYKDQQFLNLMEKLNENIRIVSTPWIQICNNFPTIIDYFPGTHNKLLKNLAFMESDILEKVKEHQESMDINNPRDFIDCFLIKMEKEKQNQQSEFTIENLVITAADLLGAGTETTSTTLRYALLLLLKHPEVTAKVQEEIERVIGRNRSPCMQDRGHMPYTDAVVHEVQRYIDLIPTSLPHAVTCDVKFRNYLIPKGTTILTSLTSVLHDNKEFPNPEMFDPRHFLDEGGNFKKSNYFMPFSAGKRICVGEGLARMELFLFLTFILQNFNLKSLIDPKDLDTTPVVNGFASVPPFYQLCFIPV
Chain of Cytochrome P450 3A4 (P08684 whole entry): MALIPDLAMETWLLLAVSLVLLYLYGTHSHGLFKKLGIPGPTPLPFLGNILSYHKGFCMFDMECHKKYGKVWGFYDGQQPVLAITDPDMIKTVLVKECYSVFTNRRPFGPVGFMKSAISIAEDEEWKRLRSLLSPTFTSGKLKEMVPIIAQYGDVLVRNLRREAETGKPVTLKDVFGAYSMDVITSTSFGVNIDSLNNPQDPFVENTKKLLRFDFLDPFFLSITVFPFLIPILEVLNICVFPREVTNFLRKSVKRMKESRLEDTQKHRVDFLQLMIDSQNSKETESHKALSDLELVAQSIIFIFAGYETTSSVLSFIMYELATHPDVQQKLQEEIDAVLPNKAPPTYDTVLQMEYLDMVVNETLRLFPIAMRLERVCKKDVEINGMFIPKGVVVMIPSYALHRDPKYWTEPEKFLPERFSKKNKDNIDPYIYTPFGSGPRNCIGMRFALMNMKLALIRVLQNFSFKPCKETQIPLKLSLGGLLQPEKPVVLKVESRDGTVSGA
Chain of Bile salt export pump (O95342 whole entry): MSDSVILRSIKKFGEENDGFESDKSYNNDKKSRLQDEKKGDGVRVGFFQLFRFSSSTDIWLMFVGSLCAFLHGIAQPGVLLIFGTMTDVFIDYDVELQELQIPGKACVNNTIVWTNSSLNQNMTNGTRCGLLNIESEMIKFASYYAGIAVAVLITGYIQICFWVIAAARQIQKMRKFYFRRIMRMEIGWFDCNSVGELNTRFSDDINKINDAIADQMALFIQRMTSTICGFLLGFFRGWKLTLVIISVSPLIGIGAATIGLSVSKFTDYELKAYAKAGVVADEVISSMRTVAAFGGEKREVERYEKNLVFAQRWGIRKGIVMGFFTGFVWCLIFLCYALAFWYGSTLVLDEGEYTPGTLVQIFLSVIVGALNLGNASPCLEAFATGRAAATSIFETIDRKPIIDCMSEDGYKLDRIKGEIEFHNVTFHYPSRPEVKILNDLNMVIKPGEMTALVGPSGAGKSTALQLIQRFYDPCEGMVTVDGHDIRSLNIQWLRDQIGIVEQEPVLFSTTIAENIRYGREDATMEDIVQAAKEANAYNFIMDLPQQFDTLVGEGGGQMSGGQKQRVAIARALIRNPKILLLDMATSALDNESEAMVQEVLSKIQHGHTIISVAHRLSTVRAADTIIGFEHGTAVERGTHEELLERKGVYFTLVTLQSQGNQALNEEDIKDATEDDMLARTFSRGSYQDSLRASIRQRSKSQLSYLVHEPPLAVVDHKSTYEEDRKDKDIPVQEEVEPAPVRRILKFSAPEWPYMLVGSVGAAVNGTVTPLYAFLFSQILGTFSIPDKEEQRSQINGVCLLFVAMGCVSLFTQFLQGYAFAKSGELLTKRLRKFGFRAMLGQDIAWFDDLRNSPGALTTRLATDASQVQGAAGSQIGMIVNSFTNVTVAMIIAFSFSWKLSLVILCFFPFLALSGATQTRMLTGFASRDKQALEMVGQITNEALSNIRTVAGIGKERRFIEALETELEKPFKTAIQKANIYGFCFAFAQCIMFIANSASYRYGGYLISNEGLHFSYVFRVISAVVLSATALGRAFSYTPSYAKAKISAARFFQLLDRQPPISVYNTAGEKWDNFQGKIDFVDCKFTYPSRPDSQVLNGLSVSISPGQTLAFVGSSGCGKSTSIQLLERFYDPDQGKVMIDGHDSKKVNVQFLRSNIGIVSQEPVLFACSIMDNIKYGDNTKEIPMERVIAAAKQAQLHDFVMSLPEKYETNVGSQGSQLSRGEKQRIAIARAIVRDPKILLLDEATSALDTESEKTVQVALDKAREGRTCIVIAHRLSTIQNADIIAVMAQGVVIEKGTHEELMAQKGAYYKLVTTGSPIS

CC(C)(O)c1ncc([S@](N)(=O)=NC(=O)Nc2c3c(cc4c2CCC4)CCC3)s1
AUC [1]: 49.125 µg·h/mL | solubility thermodynamic [2]: 21 µg/mL (≈ 49.9 µM) | inhibition (Mus musculus [3]): Dose-dependent-effect | IC50 (cells): 0.0061 µM | AUC(0-inf) [4]: 261 µg·h/mL | fraction unbound [5]: 0.006 | AUC(0-inf) [6]: 163 µg·h/mL | activity at 30 µM (PXR): 19% | IC50 (Cytochrome P450 2C19): > 60 µM | fIC50 (PBMC): 1 nM | fraction unbound [7]: 0.005 | TDI (Cytochrome P450 2C9 [8]): Not_active | inhibition [9]: > 50% | IC50 [10]: > 30 µM | Vdss [11]: 0.16 L/kg | IC50 (THP-1): 0.027 µM | solubility thermodynamic [12]: 31.9 µg/mL (≈ 75.9 µM) | half-life [13]: 3.9 h | logD [14]: 2.37 | Vdss [15]: 0.12 L/kg | hepatocyte CLint [16]: < 1.9 µL/min/1e6 cells | Cmax [17]: 6560 ng/mL | AUC(0-inf) [18]: 331 µg·h/mL | solubility [19]: 21 µg/mL (≈ 49.9 µM) | Activity (Bile salt export pump): Not_active | inhibition (Mus musculus [20]): Dose-dependent-effect | IC50 (Cytochrome P450 2D6): > 60 µM | IC50 (Cytochrome P450 2C9 [21]): > 60 µM | TDI (Cytochrome P450 3A4): Not_active | Activity (Macrophage): inactive | Activity (Mus musculus [22]): Active | inhibition (Mus musculus [23]): Dose-dependent-effect
